From US10882826B2, “Quinolinone or quinazolinone comprising antibiofilm compositions, compounds and methods and uses relating thereto” (University College Cork—National University of Ireland, priority 2015, dated 2021)

How the values were obtained:
[1] = system: A. fumigatus CFBRC1 biofilm; experiment: A. fumigatus biofilm assay, clinical source CFBRC1; assay type: cell-based, Aspergillus fumigatus; conditions: biofilm from clinical source CFBRC1
Protocol: (§1) A. fumigatus Af293 was grown on SDA in 100 ml cell culture flasks at 37° C. for 3-4 days. Conidia were harvested by flooding the surface of the agar plates with 5 ml PBS (Oxoid) containing 0.025% (v/v) Tween 20 and gently moving the liquid over the surface of the fungal lawn. The conidial suspension was transferred into a 25 ml sterile container and conidia were counted using a Neubauer haemocytometer and light microscope. Conidia were adjusted to the required concentration in RPMI 1640 (Sigma) buffered to pH 7.0 with 0.165 M MOPS immediately prior to biofilm formation analysis.
(§2) To assess biofilm formation, counted A. fumigatus spores (1×10^5) in MOPS buffered RPMI 1640 were inoculated into 24- and 96-well plates and grown overnight in the presence of 100 μM HHQ, PQS and the test compounds. After 24 hrs, the media was removed and the biofilm washed twice with distilled water after which 0.1% crystal violet (CV) was added to each well and allowed to stand for 1 hr at room temperature. The crystal violet was removed and all wells washed in a water bath by inversion. Ethanol was added to each well to solubilise biofilms after which samples were read on a spectrophotometer at Abs595 nm.
(§3) The above experiments were carried out using biofilms grown from laboratory sources of A. fumigatus. The experiments were repeated to test some compounds against biofilms grown from three different clinical sources of A. fumigatus (CFBRC1, CFBRC2 and CFBRC3. The results are shown in table 8: […]

[2] = system: A. fumigatus CFBRC2 biofilm; experiment: A. fumigatus biofilm assay, clinical source CFBRC2; assay type: cell-based, Aspergillus fumigatus; conditions: biofilm from clinical source CFBRC2
Protocol: as §1, §2, §3

mammalian cells = experiment: Cytotoxicity towards mammalian cells (summary statement); assay type: cell-based
Protocol: (§4) Lactate dehydrogenase (LDH) release from IB3 lung epithelial cells was assayed as a measure of cytotoxicity using an LDH colorimetric kit (Roche) according to manufacturers' instructions. Briefly, IB3-1 cells were seeded onto 96 well plates and treated with methanol (control) and test compounds (100 μM). Following 16 hr incubation at 37° C. and 5% CO2, supernatants were removed and added to catalyst reaction mixture in a fresh plate and further incubated at 37° C. and 5% CO2 for 30 mins to allow for colour development. After this period, the plate was analysed on an ELISA plate reader at OD490 nm. Cytotoxicity was expressed as a percentage of cells treated with 0.1% (v/v) Triton (100% cytotoxicity). The results are detailed in table 3:
(§5) The above experiments were repeated, testing some compounds against further cell lines (A549, DU145 and HeLa).

[3] = system: P. aeruginosa PAO1 pqsA-pqsA-lacZ strain; experiment: Phenazine extraction (phenazine production); assay type: cell-based; conditions: PAO1 pqsA-pqsA-lacZ strain, test compounds 10 μM, 24 hr; methanol control 0.080
Protocol: P. aeruginosa strains, PAO1 and pqsA mutant, containing the chromosomally inserted pqsA-lacZ promoter fusion on plasmid pUC18-mini-Tn7, were sub-cultured from glycerol stocks onto LB agar plates, supplemented with Carbenicillin (200 μg/ml) and X-gal (40 μg/ml), and incubated at 37° C. overnight. Single colonies were inoculated into LB broth (20 ml), supplemented with Carbenicillin (200 μg/ml), and incubated at 37° C., shaking at 180 rpm overnight. For subsequent experiments, the OD600 nm was recorded and a starting OD600 nm of 0.02 was inoculated into fresh LB broth, supplemented with Carbenicillin (200 μg/ml) and incubated at 37° C., shaking at 180 rpm.
P. aeruginosa strains were cultured as described above for 24 hr, with the addition of test compounds (10 μM). Cultures were centrifuged at 4000 rpm for 10 minutes and the cell free supernatant (5 ml) removed. Chloroform (3 ml) was added, and mixed by vortex. After centrifugation at 4000 rpm for 5 mins, the lower aqueous phase was transferred to 0.2 M HCl (2 ml). Samples were mixed by vortex and centrifuged at 4000 rpm for 5 mins to separate the phases. An aliquot of the top phase (1 ml) was removed and spectrophotmetrically analysed at OD570 nm. Phenazine production was calculated using the following formula: OD570 nm×2×17.072 and the units expressed in μg/ml.
The phenazine production levels and Miller units in the PAO1 pqsA-pqsA-lacZ strain are detailed in table 5.
The virulence of compounds B2, C13 and C15 towards P. aeruginosa was assessed using an analogous method.

[4] = system: A. fumigatus CFBRC3 biofilm; experiment: A. fumigatus biofilm assay, clinical source CFBRC3; assay type: cell-based, Aspergillus fumigatus; conditions: biofilm from clinical source CFBRC3
Protocol: as §1, §2, §3

[5] = system: A. fumigatus Af293 biofilm; experiment: A. fumigatus biofilm assay (crystal violet); assay type: cell-based, Aspergillus fumigatus; conditions: for effectiveness against fungal biofilms formed by Aspergillus fumigatus (in words): summary statement
Protocol: A. fumigatus Af293 was routinely grown on Sabouraud dextrose agar (SDA) in 100 ml cell culture flasks at 37° C. for 3-4 days until a lawn of fungal growth was observed.
as §1, §2

DU145 = experiment: LDH release cytotoxicity, DU145; assay type: cell-based; conditions: DU145 cell line; percentage of 0.1% Triton
Protocol: as §4, §5

Row | Compound | Relative absorbance compared to MeOH (=1), Mean [1] | Relative absorbance compared to MeOH (=1), Mean [2] | cytotoxicity towards mammalian cells (in words) (mammalian cells) | Phenazine, Mean [3] [µg/mL] | Relative absorbance compared to MeOH (=1), Mean [4] | Relative absorbance at 595 nm compared to methanol control, Mean ([5]; A. fumigatus Af293 biofilm, 100 μM, 24 hrs, crystal violet) | effectiveness against fungal biofilms formed by Aspergillus fumigatus (in words) [5] | Cytotoxicity, Mean (LDH release) (DU145) [%]
1 | CCCCCCCc1cc(=O)c2cccc(Cl)c2[nH]1 [Compound C5] | 0.297 | 0.359 | reduced cytotoxicity | 0 | 0.483 |  |  | 
2 | CCCCCCCc1nc2ccccc2c(=O)n1N [Compound C2] | 0.310 | 0.304 | reduced cytotoxicity | 0.541 | 0.292 | 0.37 | effective | 
3 | CCCCCCCc1cc(=O)c2cc(Cl)ccc2[nH]1 [Compound C4] |  |  | reduced cytotoxicity | 0 |  |  | effective | 24.42
